The text below walks through data of ChEMBL document CHEMBL5532637, “Antimicrobial activity of natural and semi-synthetic carbazole alkaloids” (Eur J Med Chem, 2023).

In brackets after ≈: the same amount, converted by molar mass.

The subject of series [1] is Proteus vulgaris. Kind of series: Antimicrobial activity against Proteus vulgaris NCIM 2813 assessed as zone of inhibition incubated for 24 hrs by agar diffusion method. It counts as functional. (In agar diffusion tests the substance spreads into inoculated agar from a disc or well.)
Series [2] relates to Escherichia coli. Description: Antimicrobial activity against Escherichia coli NCIM 2065 assessed as zone of inhibition incubated for 24 hrs by agar diffusion method. It counts as functional.
The subject of series [3] is Candida albicans. Kind of series: Antimicrobial activity against Candida albicans assessed as zone of inhibition incubated for 24 hrs by agar diffusion method. The class given is functional.
The test system of series [4] is Staphylococcus aureus. Description: Antimicrobial activity against Staphylococcus aureus NCIM 2120 assessed as zone of inhibition incubated for 24 hrs by agar diffusion method. The class given is functional.
A short description of series [5]: Cytotoxicity against green monkey Vero cells. It counts as toxicity, cell-based. Particulars: green monkey (Chlorocebus sabaeus).
Series [6] deals with Mycobacterium tuberculosis. Kind of series: Antibacterial activity against Mycobacterium tuberculosis H37Rv assessed as inhibition of bacterial growth by two-fold serial dilution method. The class given is functional.
The subject of series [7] is Nakaseomyces glabratus. Kind of series: Antifungal activity against Candida glabrata ATCC 90030 assessed as inhibition of fungal growth incubated for 24 hrs by microtiter plate reader assay. It counts as functional.
The test system of series [8] is Schizosaccharomyces pombe. Description: Antifungal activity against Schizosaccharomyces pombe DSM 70572 assessed as inhibition of fungal growth incubated for 24 hrs by serial dilution method. It counts as functional.
The subject of series [9] is Staphylococcus aureus. Description: Antibacterial activity against Staphylococcus aureus DSM 346 assessed as inhibition of bacterial growth incubated for 24 hrs by serial dilution method. It counts as functional.
Series [10] relates to Bacillus subtilis. Description: Antibacterial activity against Bacillus subtilis DSM 10 assessed as inhibition of bacterial growth incubated for 24 hrs by serial dilution method. It counts as functional.
For series [11], the system named is Mycolicibacterium smegmatis. Description: Antibacterial activity against Mycobacterium smegmatis DSM ATCC 700084 assessed as inhibition of bacterial growth incubated for 24 hrs by serial dilution method. It counts as functional.
Series [12] deals with Mucor hiemalis. Kind of series: Antifungal activity against Mucor hiemalis DSM 2656 assessed as inhibition of fungal growth incubated for 24 hrs by serial dilution method. The class given is functional.
For series [13], the system named is Rhodotorula glutinis. Description: Antifungal activity against Rhodotorula glutinis DSM 10134 assessed as inhibition of fungal growth incubated for 24 hrs by serial dilution method. The class given is functional.
In series [14] the test system is Pasteurella multocida. Kind of series: Antibacterial activity against Pasteurella multocida assessed as inhibition of bacterial growth by agar well diffusion method. The class given is functional.
Series [15] concerns Bacillus subtilis. Kind of series: Antibacterial activity against Bacillus subtilis assessed as inhibition of bacterial growth by agar well diffusion method. The class given is functional.
Series [16] deals with Bacillus subtilis. Description: Antibacterial activity against Bacillus subtilis NRS-744 assessed as inhibition of bacterial growth incubated for 18 to 24 hrs by microbroth dilution method. The class given is functional. Particulars: time 18-24 hrs.
The subject of series [17] is Staphylococcus aureus. Kind of series: Antibacterial activity against Staphylococcus aureus NRRL B-767 assessed as inhibition of bacterial growth incubated for 18 to 24 hrs by microbroth dilution method. The class given is functional. Particulars: time 18-24 hrs. (Broth dilution looks for growth in wells or tubes with falling amounts of substance.)
The test system of series [18] is A549. Kind of series: Cytotoxicity against human A549 cells incubated for 48 hrs by sulforhodamine B assay. It counts as functional. A general note: Sulforhodamine B stains cellular protein and so reports cell mass.
For series [19], the system named is HeLa. Description: Cytotoxicity against human HeLa cells incubated for 48 hrs by sulforhodamine B assay. The class given is functional.
The test system of series [20] is Pichia kudriavzevii. Description: Antifungal activity against Candida krusei ATCC 6258 assessed as inhibition of fungal growth incubated for 24 hrs by microtiter plate reader assay. The class given is functional.
Series [21] relates to Saccharomyces cerevisiae. Kind of series: Antifungal activity against Saccharomyces cerevisiae ATCC 9763 assessed as inhibition of fungal growth incubated for 24 hrs by microtiter plate reader assay. It counts as functional.
The subject of series [22] is Escherichia coli. Description: Antibacterial activity against Escherichia coli assessed as inhibition of bacterial growth by broth microdilution method. The class given is functional.
The subject of series [23] is Pseudomonas aeruginosa. Description: Antibacterial activity against Pseudomonas aeruginosa assessed as inhibition of bacterial growth by broth microdilution method. It counts as functional.
Series [24] relates to Candida albicans. Kind of series: Antifungal activity against Candida albicans clinical isolate Gu5 assessed as inhibition of fungal growth by broth microdilution method. The class given is functional.
In series [25] the test system is Staphylococcus aureus. Kind of series: Antibacterial activity against Staphylococcus aureus assessed as inhibition of bacterial growth by broth microdilution method. The class given is functional.
Series [26] has as its system Candida tropicalis. Description: Antifungal activity against Candida tropicalis MTCC 9038 assessed as inhibition of fungal growth by broth microdilution method. The class given is functional.
The subject of series [27] is Candida albicans. Description: Antifungal activity against Candida albicans MTCC 3017 assessed as inhibition of fungal growth by broth microdilution method. It counts as functional.
Series [28] deals with Candida parapsilosis. Description: Antifungal activity against Candida parapsilosis MTCC 7043 assessed as inhibition of fungal growth by broth microdilution method. The class given is functional. Particulars: Lodderomyces parapsilosis.
The subject of series [29] is Nakaseomyces glabratus. Description: Antifungal activity against Candida glabrata MTCC 3814 assessed as inhibition of fungal growth by broth microdilution method. It counts as functional.
In series [30] the test system is Candida albicans. Kind of series: Antifungal activity against Candida albicans clinical isolate DSY296 assessed as inhibition of fungal growth by broth microdilution method. It counts as functional.
The test system of series [31] is Klebsiella pneumoniae. Description: Antibacterial activity against Klebsiella pneumoniae assessed as inhibition of bacterial growth by broth microdilution method. The class given is functional.
In series [32] the test system is Candida albicans. Kind of series: Antifungal activity against Candida albicans clinical isolate Gu4 assessed as inhibition of fungal growth by broth microdilution method. The class given is functional.
Series [33] deals with Candida albicans. Kind of series: Antifungal activity against Candida albicans clinical isolate DSY294 assessed as inhibition of fungal growth by broth microdilution method. The class given is functional.
In series [34] the test system is Candida albicans. Kind of series: Antifungal activity against Candida albicans SC5314 assessed as inhibition of fungal growth by broth microdilution method. It counts as functional.
Series [35] has as its system Pichia kudriavzevii. Kind of series: Antifungal activity against Candida krusei MTCC 9215 assessed as inhibition of fungal growth by broth microdilution method. The class given is functional.
The test system of series [36] is Cryptococcus deuterogattii. Description: Antifungal activity against Cryptococcus gattii VGII WM178/08 assessed as inhibition of fungal growth incubated for 24 to 48 hrs by CLSI protocol based broth microdilution method. Particulars: time 24-48 hrs. It counts as functional, Cryptococcus bacillisporus.
Series [37] relates to Cryptococcus neoformans. Kind of series: Antifungal activity against Cryptococcus neoformans […] assessed as inhibition of fungal growth incubated for 24 to 48 hrs by CLSI protocol based broth microdilution method. The class given is functional. The conditions noted are these: time 24-48 hrs.
Series [38] has as its system Staphylococcus aureus. Description: Antibacterial activity against Staphylococcus aureus assessed as zone of inhibition by filter paper disk-agar diffusion method. The class given is functional.
The subject of series [39] is Mycobacterium tuberculosis. Kind of series: Antibacterial activity against Mycobacterium tuberculosis assessed as inhibition of bacterial growth. It counts as functional.
In series [40] the test system is Bacillus cereus. Kind of series: Antibacterial activity against Bacillus cereus assessed as inhibition of bacterial growth. It counts as functional, organism-based.

`Cn1c2ccccc2c2cc(/C=C/C(=O)c3ccc([N+](=O)[O-])cc3)ccc21`: the “inhibition zone (IZ)” value in [1] was determined as 4 mm; in series [2], 2.5 mm; in series [3], 5 mm; in series [4], 4.5 mm.
In general, IC50 refers to the point on the concentration scale where inhibition reaches its midpoint. Broadly, the MIC90 is an inhibitory concentration at the 90% level, which refers to growth in some studies and to a panel of isolates in others. With `COc1ccc2[nH]c3c(OCc4ccccc4)cc(C)cc3c2c1`, the IC50 in series [5] was greater than 128 µM. Further, the MIC90 in series [6] was determined as 31.7 µg/mL (≈ 99.9 µM).
For orientation: MIC50 means an inhibitory concentration at the 50% level, which refers to growth in some studies and to a panel of isolates in others. As to `FC(F)(F)Oc1ccc2c3c([nH]c2c1)C(NCCOc1ccc(Cl)cc1)CCC3` (stereo not given), in [7], the MIC50 was 5.3 µM (≈ 2.25 µg/mL).
A word on the MIC: it is the smallest concentration in the dilution series that meets the test's criterion for growth inhibition. As to `Brc1ccc2[nH]c3c(c2c1)CCCC31CCCn2ccnc21` (stereo not given), the MIC in [8], in series [9], in [10], in series [11], in [12] and in series [13] was 66.6 µM (≈ 23.7 µg/mL) in each case.
Regarding `C/C(=N/Nc1ccccc1)C1CCCc2c1n(C)c1c([N+](=O)[O-])cc([N+](=O)[O-])cc21` (stereo not given), the MIC in series [14] and in series [15] was 1.8 µg/mL (≈ 4.42 µM) each time.
In the case of `CCn1c2ccccc2c2cc(NC(=O)COc3cccc4cccnc34)ccc21`, the minimum inhibitory concentration (MIC) in series [16] and in series [17] was 31.2 µg/mL (≈ 79 µM) throughout.
In the case of `CC(C)=CCc1ccc2c([nH]c3cc(O)c(C=O)cc32)c1O`, the IC in series [18] came to 5.25 µg/mL; in series [19] it was 1.91 µg/mL.
As to `FC(F)(F)Oc1ccc2c3c([nH]c2c1)C(NCc1ccc(Br)cc1)CCC3` (stereo not given), the MIC50 in [20] was determined as 4.7 µM (≈ 2.06 µg/mL); in [21], 1.5 µM (≈ 0.659 µg/mL).
Take `COc1cc2c(cc1O)[nH]c1c3c(c(C)cc12)OC(C)(C)C=C3`: the MIC90 is greater than 100 µg/mL in series [22]; greater than 100 µg/mL in series [23]; 12.5 µg/mL (≈ 40.4 µM) in series [24]; 3.12 µg/mL (≈ 10.1 µM) in [25]; 12.5 µg/mL (≈ 40.4 µM) in series [26]; 12.5 µg/mL (≈ 40.4 µM) in series [27]. For the same molecule, the MIC90 in series [28] worked out at 12.5 µg/mL (≈ 40.4 µM); in [29] it was 12.5 µg/mL (≈ 40.4 µM); in series [30], 12.5 µg/mL (≈ 40.4 µM); in [31], 3.12 µg/mL (≈ 10.1 µM); in [32] it was 12.5 µg/mL (≈ 40.4 µM); in [33] it was 12.5 µg/mL (≈ 40.4 µM). In addition, the MIC90 in series [34] and in series [35] was 12.5 µg/mL (≈ 40.4 µM) throughout.
Turning to `c1ccc2c(c1)[nH]c1ccccc12` [CARBAZOLE], the MIC in series [36] and in [37] was 160 µg/mL (≈ 957 µM) each time.
On to `COc1cc2c(cc1O)[nH]c1cc(O)c(C=O)cc12` [CLAULANSINE J], for which, in series [38], the “inhibition zone (IZ)” value is listed as 14.2 mm.
As for `Cc1cc2c([nH]c3ccc4c(c32)C=CC(C)(C)O4)c(-c2c(O)c(C)cc3c2[nH]c2ccc4c(c23)C=CC(C)(C)O4)c1O` [CLAUSENAWALLINE A], the MIC in [39] stood at 12.5 µg/mL (≈ 22.5 µM).
As to `Cc1cc2c([nH]c3ccccc32)c2c1OC(C)(C)C=C2` [GRINIMIBINE], the IC50 in series [40] was 3.4 µM.
